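Protocol summary: plate cells (96-well), add compound at 5 concentrations, incubate 48 h, interpolate endpoints linearly. GI50: concentration for 50% inhibition of growth.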 The source made the active and inactive calls. No stated cut-off is given here; in the data, active = GI50 up to about 1.1 µM and inactive = higher.

Among the test systems are U-251; K562; OVCAR-8; SF-539; SF-268; EKVX; UACC-62; SN12C; SW-620; OVCAR-5; SK-MEL-28; SNB-19; HCT-116; NCI/ADR-RES; BT-549; NCI-H522; DU-145; SK-MEL-5; NCI-H460; UACC-257.
Experiment in all cases: NCI anticancer screen, dose series, 48 h

`c1cc(CSSCc2ccncc2)ccn1`: the GI50 in the assay on U-251 is 23.3 µM (inactive); with K562, 14.8 µM (inactive); in the assay with OVCAR-8 it was 21.7 µM (inactive); in the assay with SF-539 it was 8.02 µM (inactive); with SF-268 it was 28.4 µM (inactive); in the assay with EKVX, 54.8 µM (inactive). The GI50 was 24.9 µM (inactive) in the assay on UACC-62; 25.2 µM (inactive) in the assay on SN12C; 6.27 µM (inactive) in the assay with SW-620; 55.5 µM (inactive) with OVCAR-5; 64 µM (inactive) in the assay on SK-MEL-28; 34 µM (inactive) in the assay on SNB-19. The GI50 in the assay with HCT-116 was 14.1 µM (inactive); in the assay on NCI/ADR-RES, 30.5 µM (inactive); in the assay with BT-549, 51.6 µM (inactive); in the assay on NCI-H522 it was 12.9 µM (inactive); in the assay with DU-145 it was 28.9 µM (inactive); with SK-MEL-5 it was 17.7 µM (inactive). Further, the results for the GI50 in the assay on NCI-H460 and in the assay with UACC-257 were 23.7 µM (inactive) and 15.9 µM (inactive), respectively.

Regarding `O=C(/C=C(\S/C=C(/c1ccccc1)N1CCn2c(C(=O)c3ccccc3)c(C(=O)c3ccccc3)c(C(=O)c3ccccc3)c21)C(=O)c1ccccc1)c1ccccc1`, the GI50 in the assay on U-251, in the assay on K562, with OVCAR-8, in the assay with SF-539, in the assay with SF-268 and in the assay on EKVX was > 10 µM (inactive) each time. Further, the GI50 in the assay on UACC-62, with SN12C, in the assay on SW-620, with OVCAR-5, with SK-MEL-28 and in the assay with SNB-19 was > 10 µM (inactive) each time. Besides, the GI50 in the assay on HCT-116, with NCI/ADR-RES, in the assay with BT-549, with NCI-H522, with DU-145 and in the assay with SK-MEL-5 was > 10 µM (inactive) in each case. For the same molecule, the GI50 in the assay with NCI-H460 and in the assay on UACC-257 was > 10 µM (inactive) each time.

As for `Clc1ccc(-c2nn3c(COc4cccc(OCc5nnc6sc(-c7ccc(Cl)cc7)nn56)c4)nnc3s2)cc1`, the GI50 in the assay with U-251 was 24.3 µM (inactive); in the assay on K562, 24.4 µM (inactive); in the assay on OVCAR-8, 28.9 µM (inactive); in the assay with SF-539 it was 26.9 µM (inactive); in the assay with SF-268, 21.7 µM (inactive); in the assay on EKVX, 21.3 µM (inactive). The GI50 is 23.2 µM (inactive) with UACC-62; 12.6 µM (inactive) in the assay with SN12C; 25.9 µM (inactive) with SW-620; 28.6 µM (inactive) in the assay on OVCAR-5; 7.78 µM (inactive) with SK-MEL-28; 24.6 µM (inactive) in the assay on SNB-19. The GI50 was 18.6 µM (inactive) with HCT-116; 36.9 µM (inactive) with NCI/ADR-RES; 30.7 µM (inactive) in the assay with BT-549; 22.8 µM (inactive) with NCI-H522; 25.4 µM (inactive) in the assay on DU-145; 15.2 µM (inactive) in the assay on SK-MEL-5. For the same molecule, the GI50 with NCI-H460 is 31 µM (inactive); in the assay with UACC-257, 26.1 µM (inactive).

Regarding `CC(=O)c1cccc2c1CC1(C2)Cc2ccc3c(c2C1=O)CCC3` (stereo not given), the GI50 is 47.1 µM (inactive) with U-251; 21.6 µM (inactive) in the assay with K562; 57.1 µM (inactive) in the assay on OVCAR-8; 82.2 µM (inactive) in the assay with SF-539; 40.7 µM (inactive) in the assay with SF-268; 17.9 µM (inactive) with EKVX. In addition, the GI50 is 78.5 µM (inactive) with UACC-62; 35.8 µM (inactive) with SN12C; 55.2 µM (inactive) in the assay on SW-620; 53.6 µM (inactive) in the assay on OVCAR-5; 42.1 µM (inactive) with SK-MEL-28; > 100 µM (inactive) with SNB-19. The GI50 was 27.7 µM (inactive) in the assay with HCT-116; 12.7 µM (inactive) with NCI/ADR-RES; 82.2 µM (inactive) in the assay with BT-549; 17 µM (inactive) in the assay with NCI-H522; 79.1 µM (inactive) with DU-145; 14 µM (inactive) in the assay on SK-MEL-5. The GI50 is 33.3 µM (inactive) in the assay on NCI-H460 and 14.8 µM (inactive) with UACC-257.

On to `CC1CNC(c2ccc(COc3ccc(C4=NC(C)CN4)cc3)cc2)=N1` (stereo not given), for which the GI50 is 28.5 µM (inactive) in the assay with U-251; 15.5 µM (inactive) with K562; 72.6 µM (inactive) in the assay with OVCAR-8; 54.8 µM (inactive) with SF-539; 54.3 µM (inactive) in the assay on SF-268; > 100 µM (inactive) with EKVX. Also, the GI50 in the assay with UACC-62 is 26.2 µM (inactive); in the assay on SN12C it was 17.6 µM (inactive); in the assay with SW-620, 67.9 µM (inactive); in the assay on OVCAR-5, > 100 µM (inactive); in the assay with SK-MEL-28, 41.8 µM (inactive); in the assay on SNB-19, 50.1 µM (inactive). In addition, the GI50 with HCT-116 is 39.1 µM (inactive); in the assay with NCI/ADR-RES, > 100 µM (inactive); with BT-549, > 100 µM (inactive); in the assay with NCI-H522, 39 µM (inactive); in the assay on DU-145 it was > 100 µM (inactive); in the assay on SK-MEL-5, 28.6 µM (inactive). The GI50 is 23.4 µM (inactive) in the assay on NCI-H460 and 16.9 µM (inactive) with UACC-257.

In the case of `CCCCCC(/C=C/C1CCC(=O)C1)OCOCCOC` (stereo not given), the GI50 in the assay on U-251 was 38.1 µM (inactive); with K562, 25.8 µM (inactive); in the assay with OVCAR-8, 33.9 µM (inactive); in the assay with SF-539 it was 19.8 µM (inactive); with SF-268, 29.3 µM (inactive); with EKVX, 54.1 µM (inactive). Also, the GI50 in the assay with UACC-62 is 36.6 µM (inactive); in the assay on SN12C, 57.5 µM (inactive); with SW-620, 29.8 µM (inactive); with OVCAR-5 it was > 100 µM (inactive); with SK-MEL-28 it was > 77.3 µM (inactive); with SNB-19, > 53.3 µM (inactive). Also, the GI50 in the assay with HCT-116 is 27 µM (inactive); in the assay with NCI/ADR-RES it was 30 µM (inactive); in the assay on BT-549, 27.9 µM (inactive); with NCI-H522, 17.1 µM (inactive); with DU-145, > 100 µM (inactive); in the assay on SK-MEL-5, 47.8 µM (inactive). The GI50 was 67.9 µM (inactive) in the assay on NCI-H460 and 26.9 µM (inactive) in the assay on UACC-257.

`COCn1c2ccc(OC(C)=O)cc2c2c(=O)oc(C)nc21`: the GI50 with U-251, in the assay on K562, in the assay on OVCAR-8, in the assay on SF-539, in the assay on SF-268 and in the assay on EKVX was > 100 µM (inactive) each time. Moreover, the GI50 with UACC-62, in the assay with SN12C, with SW-620, in the assay with OVCAR-5, with SK-MEL-28 and in the assay with SNB-19 was > 100 µM (inactive) each time. Besides, the GI50 in the assay on HCT-116, in the assay with NCI/ADR-RES, in the assay with BT-549, in the assay with NCI-H522, with DU-145 and with SK-MEL-5 was > 100 µM (inactive) throughout. The GI50 with NCI-H460 and in the assay with UACC-257 was > 100 µM (inactive) throughout.

For `CC1(C)[C@@H]2C[C@H]1c1cnc(-c3ccccn3)cc1C2CCCCC[C@@H]1c2cc(-c3ccccn3)ncc2[C@@H]2C[C@H]1C2(C)C` (stereo not given in full), the GI50 was 0.897 µM (active) in the assay with U-251; 0.473 µM (active) in the assay with K562; 1.88 µM (inactive) with OVCAR-8; 0.199 µM (active) in the assay on SF-539; 0.687 µM (active) with SF-268; 2.56 µM (inactive) in the assay on EKVX. Also, the GI50 was 0.946 µM (active) in the assay on UACC-62; 1.53 µM (inactive) with SN12C; 0.83 µM (active) with SW-620; > 20.3 µM (inactive) in the assay on OVCAR-5; 2.29 µM (inactive) in the assay on SK-MEL-28; 1.78 µM (inactive) in the assay with SNB-19. In addition, the GI50 in the assay with HCT-116 is 0.489 µM (active); in the assay on NCI/ADR-RES, 25.6 µM (inactive); with BT-549, 14.1 µM (inactive); in the assay with NCI-H522 it was 1.71 µM (inactive); in the assay with DU-145, 1.41 µM (inactive); in the assay on SK-MEL-5 it was 4.18 µM (inactive). Also, the GI50 was 1.99 µM (inactive) in the assay with NCI-H460 and 0.655 µM (active) in the assay with UACC-257.

`C=C1CCC(CC[C@@H]2CC[C@]3(OC2)O[C@@]2(O)CC[C@]3(C)OC2(C)C)C(C)(C)[C@H]1C/C=C1/C(=O)OC[C@@H]1O` (stereo not given in full): the GI50 with U-251 is 2 µM (inactive); in the assay with K562 it was 0.141 µM (active); in the assay on OVCAR-8 it was 1.22 µM (inactive); with SF-539 it was 3.17 µM (inactive); in the assay with SF-268, 3.01 µM (inactive); in the assay on EKVX it was 2.96 µM (inactive). In addition, the GI50 in the assay on UACC-62 was 1.34 µM (inactive); in the assay with SN12C it was 2.36 µM (inactive); in the assay on SW-620, 3.33 µM (inactive); in the assay with OVCAR-5, 2.5 µM (inactive); in the assay on SK-MEL-28, 1.59 µM (inactive); in the assay with SNB-19, 2.89 µM (inactive). For the same molecule, the GI50 in the assay on HCT-116 was 0.71 µM (active); in the assay with NCI/ADR-RES, 0.906 µM (active); in the assay on BT-549, 1.9 µM (inactive); in the assay with NCI-H522, 1.29 µM (inactive); in the assay on DU-145 it was 4.83 µM (inactive); in the assay on SK-MEL-5, 0.0986 µM (active). In addition, the GI50 in the assay on NCI-H460 is 3.04 µM (inactive); in the assay with UACC-257 it was 0.363 µM (active).

With `O=CN1CCN(C(=O)c2ccco2)C1=S`, the GI50 in the assay with U-251 was 13.9 µM (inactive); with K562 it was 3.25 µM (inactive); in the assay on OVCAR-8 it was 16 µM (inactive); in the assay on SF-539, 4.38 µM (inactive); in the assay on SF-268, 7.05 µM (inactive); in the assay on EKVX it was 17.6 µM (inactive). The GI50 in the assay with UACC-62 was 8.04 µM (inactive); in the assay with SN12C it was 4.01 µM (inactive); in the assay on SW-620, 5.82 µM (inactive); in the assay with OVCAR-5 it was 19.4 µM (inactive); in the assay on SK-MEL-28, 15.9 µM (inactive); in the assay on SNB-19 it was 22.1 µM (inactive). The GI50 in the assay with HCT-116 is 12.2 µM (inactive); in the assay with NCI/ADR-RES, 23.4 µM (inactive); in the assay with BT-549 it was 5.5 µM (inactive); with NCI-H522, 3.67 µM (inactive); with DU-145, 3.08 µM (inactive); in the assay with SK-MEL-5, 12.6 µM (inactive). In addition, the GI50 with NCI-H460 was 12.4 µM (inactive); in the assay on UACC-257, 12.1 µM (inactive).

For the origin of these results see ChEMBL document CHEMBL1201862, “PubChem BioAssay data set” (2004).
